Measured values reported in patent US8575309B2, “Delta-opioid receptor selective analgesics” (Biousian Biosystems, Inc., priority 2008, dated 2013).
pEC50, pIC50, pKi: −log10 of the molar value. Where two headings read alike, the source gives them in different places. Non-standard residues stand in square brackets, D forms with d. Residues, ends and D or L forms follow the SMILES beside them. *: point of attachment. βGlc = OC[C@H]1O[C@@H](*)[C@H](O)[C@@H](O)[C@@H]1O; Nle = CCCC[C@H](N)C(=O)O; Nva = CCC[C@H](N)C(=O)O

Legend:
[1] = biological target: T1, human delta opioid receptor (hDOR) (Homo sapiens, UniProt P41143); assay: Radioligand competition binding, [3H]naltrindole, hDOR CHO cell membranes; conditions: for rank order of affinity for the delta receptor: peptides at 100 nM and 1 nM vs. 0.2 nM [3H]Naltrindole, 20 ug hDOR CHO cell membranes (FIGS. 1 and 2)
T1 construct: expressed in transfected cells; membranes
T1 sequence (P41143 whole entry): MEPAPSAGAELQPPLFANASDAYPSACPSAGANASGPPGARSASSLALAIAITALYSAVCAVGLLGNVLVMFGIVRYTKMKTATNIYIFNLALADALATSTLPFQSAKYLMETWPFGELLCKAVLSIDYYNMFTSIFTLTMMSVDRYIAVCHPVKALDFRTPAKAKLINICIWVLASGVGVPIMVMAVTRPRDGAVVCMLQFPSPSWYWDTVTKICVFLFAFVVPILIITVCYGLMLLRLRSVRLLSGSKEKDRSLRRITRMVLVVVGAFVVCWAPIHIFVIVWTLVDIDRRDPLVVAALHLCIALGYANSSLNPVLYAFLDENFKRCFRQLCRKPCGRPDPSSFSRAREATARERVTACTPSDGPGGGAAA

[2] = biological target: T2, human mu opioid receptor (hMOR) (Homo sapiens, UniProt P35372); assay: Radioligand competition binding, [3H]DAMGO, hMOR CHO cell membranes
T2 construct: expressed in transfected cells; membranes
T2 sequence (P35372 whole entry): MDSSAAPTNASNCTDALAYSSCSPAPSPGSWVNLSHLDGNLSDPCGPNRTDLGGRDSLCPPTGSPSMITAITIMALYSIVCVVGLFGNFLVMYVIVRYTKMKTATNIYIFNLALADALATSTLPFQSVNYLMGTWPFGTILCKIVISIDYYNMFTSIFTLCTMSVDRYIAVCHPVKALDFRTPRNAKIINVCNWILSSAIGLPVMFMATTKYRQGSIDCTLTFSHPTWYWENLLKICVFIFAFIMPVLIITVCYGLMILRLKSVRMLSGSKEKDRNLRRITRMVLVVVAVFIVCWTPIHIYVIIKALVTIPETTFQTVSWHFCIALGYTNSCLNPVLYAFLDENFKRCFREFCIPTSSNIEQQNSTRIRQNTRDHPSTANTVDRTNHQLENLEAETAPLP

[3] = biological target: T3, human kappa opioid receptor (hKOR) (Homo sapiens, UniProt P41145); assay: Radioligand binding, [3H]U69,593, hKOR CHO cell membranes; conditions: peptide at 10 uM, read-out: Max Inhib at 10 uM (%) Kappa [3H]U69,593 Mean
T3 construct: expressed in transfected cells; membranes
T3 sequence (P41145 whole entry): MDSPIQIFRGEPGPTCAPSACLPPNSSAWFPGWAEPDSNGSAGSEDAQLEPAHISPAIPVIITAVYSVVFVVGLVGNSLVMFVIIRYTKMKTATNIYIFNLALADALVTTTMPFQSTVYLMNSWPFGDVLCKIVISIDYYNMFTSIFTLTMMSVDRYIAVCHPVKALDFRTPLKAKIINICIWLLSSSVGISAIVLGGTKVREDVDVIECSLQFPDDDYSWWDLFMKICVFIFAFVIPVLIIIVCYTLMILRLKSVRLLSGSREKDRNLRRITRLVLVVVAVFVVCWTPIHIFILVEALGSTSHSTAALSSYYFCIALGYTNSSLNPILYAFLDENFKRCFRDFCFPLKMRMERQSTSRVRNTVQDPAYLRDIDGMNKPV

hDOR = biological target: T4, hDOR (Homo sapiens, UniProt P41143); assay: [35S]GTPγS binding assay, hDOR CHO cell membranes; assay type: biochemical; conditions: for Antagonist Properties Imax (%) Delta Mean: cell wraps over r13-r15: No Inhibition; for Description: Delta: functional classification; for Emax: read-out: Agonist Properties EMax (%) Delta Mean
T4 construct: expressed in transfected cells; membranes
T4 sequence (P41143 whole entry): as the sequence (P41143 whole entry) above
Procedure: (§1) GTPγS binding assay to determine if the peptide is an agonist, antagonist, or partial agonist at the DOR. Membranes from the CHO cell lines, expressing either the MOR, DOR or KOR, will be incubated with 12 concentrations of each peptide for 60 min at 30° C. in a final volume of 0.5 mL of assay buffer (50 mM Tris-HCl, 3 mM MgCl2, 0.2 mM EGTA, 100 mM NaCl, pH 7.5) containing 3 μM GDP and 0.08 nM [^35S] GTPγS. Basal binding is determined in the presence of GDP and the absence of opioids, and nonspecific binding is determined by including 10 μM unlabeled […] GTPγS. The incubation is terminated by filtration under vacuum through glass fiber filters, followed by three washes with 3-ml ice-cold 50 mM Tris-HCl, pH 7.5. Samples are allowed to equilibrate overnight and are counted in 2 ml of Ecoscint A scintillation fluid for 2 min in a liquid scintillation counter.
(§2) GTPγS binding assay described in Example 3.

hMOR = biological target: T5, hMOR (Homo sapiens, UniProt P35372); assay: [35S]GTPγS binding assay, hMOR CHO cell membranes; assay type: biochemical; conditions: for Antagonist Properties Imax (%) Mu Mean: cell wraps over r13-r15: No Inhibition; for Description: Mu: functional classification; for Emax: hMOR CHO cell membranes, @ 10 um, read-out: Agonist Properties EMax (%) Mu Mean
T5 construct: expressed in transfected cells; membranes
T5 sequence (P35372 whole entry): as the sequence (P35372 whole entry) above
Procedure: as §1, §2

mouse tail flick = assay: Mouse tail flick assay, oral availability of formulations; assay type: in vivo; conditions: for antinociceptive activity: 32 mg/kg

Question: CCC[C@H](NC(=O)[C@H](CCC)NC(=O)[C@H](CCC(=O)O)NC(=O)[C@H](Cc1ccccc1)NC(=O)[C@@H](C)NC(=O)[C@@H](N)Cc1ccc(O)cc1)C(=O)N[C@@H](CO[C@@H]1O[C@H](CO)[C@@H](O)[C@H](O)[C@H]1O)C(N)=O [Peptide 11005, H2N-YaFE-Nva-Nva-S(beta-D-Glc)-amide] (H-Y[dA]FE[Nva][Nva]S(βGlc)-NH2) was tested. Which pIC50 [1] did it give?
Answer: Its pIC50 is 7.21.

Question: What about the pKi [1] of the same molecule?
Answer: Its pKi is 7.70.

Question: What about the “rank order of affinity for the delta receptor” value [1] of the same molecule?
Answer: Its value is “[11001≈111003≈11008≈DPDDE]>[11005≈11006≈11007]>[11002≈11004]>Lsz27”.

Question: What about the pKi [2] of the same molecule?
Answer: Its pKi is 6.15.

Question: What about the inhibition at 10 µM [3] of the same molecule?
Answer: Its inhibition at 10 µM is 5.3%.

Question: How did the pIC50 [1] turn out when CCCC[C@H](NC(=O)[C@H](CCC(=O)O)NC(=O)[C@H](Cc1ccccc1)NC(=O)[C@@H](C)NC(=O)[C@@H](N)Cc1ccc(O)cc1)C(=O)N[C@@H](CCCC)C(=O)N[C@H](C(N)=O)[C@@H](C)O[C@@H]1O[C@H](CO)[C@@H](O)[C@H](O)[C@H]1O [Peptide 11008, H2N-YaFE-Nle-Nle-T(beta-D-Glc)-amide] (H-Y[dA]FE[Nle][Nle]T(βGlc)-NH2) was run?
Answer: The pIC50 was 7.38.

Question: And the pKi [1]?
Answer: The pKi was 7.85.

Question: What about the “rank order of affinity for the delta receptor” value [1] of the same molecule?
Answer: Its value is “[11001≈111003≈11008≈DPDDE]>[11005≈11006≈11007]>[11002≈11004]>Lsz27”.

Question: What about the “lower affinity for delta than DPDPE” value ([1]; relative to DPDPE) of the same molecule?
Answer: Its value is about 3 fold.

Question: And the pKi [2]?
Answer: Its pKi is 5.96.

Question: And the inhibition at 10 µM [3]?
Answer: Its inhibition at 10 µM is 2.9%.

Question: And the pEC50 (hDOR)?
Answer: Its pEC50 is 7.92.

Question: And the “Antagonist Properties Imax (%) Delta Mean” value (hDOR)?
Answer: The value was “No”.

Question: What about the “Description: Delta” value (hDOR) of the same molecule?
Answer: The value was “Agonist”.

Question: What about the Emax (hDOR; hDOR CHO cell membranes) of the same molecule?
Answer: Its Emax is 75%.

Question: What about the “Antagonist Properties Imax (%) Mu Mean” value (hMOR) of the same molecule?
Answer: Its value is “No”.

Question: And the “Description: Mu” value (hMOR)?
Answer: Its value is “Very weak agonist”.

Question: And the Emax (hMOR)?
Answer: The Emax was 27%.

Question: What about the “efficacy of oral formulation versus unformulated glycopeptide” value (mouse tail flick; oral formulation, 3.2 mg/kg) of the same molecule?
Answer: Its value is “just slightly lower efficacy than that produced by 32 mg/kg of unformulated glycopeptide 11008”.

Question: What about the antinociceptive activity (mouse tail flick; oral formulation) of the same molecule?
Answer: The antinociceptive activity was 75%.

Question: What about the antinociceptive activity (mouse tail flick; saline formulation (unformulated)) of the same molecule?
Answer: The antinociceptive activity was 30%.

Question: For CCCC[C@H](NC(=O)[C@H](CCC(=O)O)NC(=O)[C@H](Cc1ccccc1)NC(=O)[C@@H](C)NC(=O)[C@@H](N)Cc1ccc(O)cc1)C(=O)N[C@@H](CCCC)C(=O)N[C@H](C(N)=O)[C@@H](C)O [Peptide 11009, H2N-YaFE-Nle-Nle-T-amide] (H-Y[dA]FE[Nle][Nle]T-NH2), which “Antagonist Properties Imax (%) Delta Mean” value (hDOR) is on record?
Answer: Its value is “No”.

Question: And the “Description: Delta” value (hDOR)?
Answer: Its value is “Agonist”.

Question: What about the EC50 (hDOR; hDOR CHO cell membranes, read-out: Agonist Properties EC50 (nM) Delta Mean) of the same molecule?
Answer: Its EC50 is 12 nM.

Question: What about the Emax (hDOR; hDOR CHO cell membranes) of the same molecule?
Answer: Its Emax is 67%.

Question: And the “Antagonist Properties Imax (%) Mu Mean” value (hMOR)?
Answer: The value was “No”.

Question: What about the “Description: Mu” value (hMOR) of the same molecule?
Answer: The value was “Very weak agonist”.

Question: And the Emax (hMOR)?
Answer: The Emax was 42%.

Question: Which “rank order of affinity for the delta receptor” value [1] does the source give for “H2N-YaFE-Nle-Nle-S(beta-D-Glc)-amide (H-Y[dA]FE[Nle][Nle]S(βGlc)-NH2; SMILES CCCC[C@H](NC(=O)[C@H](CCCC)NC(=O)[C@H](CCC(=O)O)NC(=O)[C@H](Cc1ccccc1)NC(=O)[C@@H](C)NC(=O)[C@@H](N)Cc1ccc(O)cc1)C(=O)N[C@@H](CO[C@@H]1O[C@H](CO)[C@@H](O)[C@H](O)[C@H]1O)C(N)=O) [Peptide 11006]” here?
Answer: Its value is “[11001≈111003≈11008≈DPDDE]>[11005≈11006≈11007]>[11002≈11004]>Lsz27”.

Question: “H2N-YaFE-Nva-Nva-T(beta-D-Glc)-amide (H-Y[dA]FE[Nva][Nva]T(βGlc)-NH2; SMILES CCC[C@H](NC(=O)[C@H](CCC(=O)O)NC(=O)[C@H](Cc1ccccc1)NC(=O)[C@@H](C)NC(=O)[C@@H](N)Cc1ccc(O)cc1)C(=O)N[C@@H](CCC)C(=O)N[C@H](C(N)=O)[C@@H](C)O[C@@H]1O[C@H](CO)[C@@H](O)[C@H](O)[C@H]1O) [Peptide 11007]” was tested. Which “rank order of affinity for the delta receptor” value [1] did it give?
Answer: Its value is “[11001≈111003≈11008≈DPDDE]>[11005≈11006≈11007]>[11002≈11004]>Lsz27”.

Question: For “H2N-YaFHLAS(beta-D-Glc)-amide (H-Y[dA]FHLAS(βGlc)-NH2; SMILES CC(C)C[C@H](NC(=O)[C@H](Cc1c[nH]cn1)NC(=O)[C@H](Cc1ccccc1)NC(=O)[C@@H](C)NC(=O)[C@@H](N)Cc1ccc(O)cc1)C(=O)N[C@@H](C)C(=O)N[C@@H](CO[C@@H]1O[C@H](CO)[C@@H](O)[C@H](O)[C@H]1O)C(N)=O) [Peptide 11002]”, which “rank order of affinity for the delta receptor” value [1] is on record?
Answer: The value was “[11001≈111003≈11008≈DPDDE]>[11005≈11006≈11007]>[11002≈11004]>Lsz27”.

Question: How did the “rank order of affinity for the delta receptor” value [1] turn out when “H2N-YaFHLAT(beta-D-Glc)-amide (H-Y[dA]FHLAT(βGlc)-NH2; SMILES CC(C)C[C@H](NC(=O)[C@H](Cc1c[nH]cn1)NC(=O)[C@H](Cc1ccccc1)NC(=O)[C@@H](C)NC(=O)[C@@H](N)Cc1ccc(O)cc1)C(=O)N[C@@H](C)C(=O)N[C@H](C(N)=O)[C@@H](C)O[C@@H]1O[C@H](CO)[C@@H](O)[C@H](O)[C@H]1O) [Peptide 11004]” was run?
Answer: Its value is “[11001≈111003≈11008≈DPDDE]>[11005≈11006≈11007]>[11002≈11004]>Lsz27”.

Question: “H2N-YmFHLMS(beta-D-Glc)-amide (H-Y[dM]FHLMS(βGlc)-NH2; SMILES CSCC[C@H](NC(=O)[C@H](CC(C)C)NC(=O)[C@H](Cc1c[nH]cn1)NC(=O)[C@H](Cc1ccccc1)NC(=O)[C@@H](CCSC)NC(=O)[C@@H](N)Cc1ccc(O)cc1)C(=O)N[C@@H](CO[C@@H]1O[C@H](CO)[C@@H](O)[C@H](O)[C@H]1O)C(N)=O) [Peptide 11001]” was tested. Which “rank order of affinity for the delta receptor” value [1] did it give?
Answer: Its value is “[11001≈111003≈11008≈DPDDE]>[11005≈11006≈11007]>[11002≈11004]>Lsz27”.

Question: With “H2N-YmFHLMT(beta-D-Glc)-amide (H-Y[dM]FHLMT(βGlc)-NH2; SMILES CSCC[C@H](NC(=O)[C@H](CC(C)C)NC(=O)[C@H](Cc1c[nH]cn1)NC(=O)[C@H](Cc1ccccc1)NC(=O)[C@@H](CCSC)NC(=O)[C@@H](N)Cc1ccc(O)cc1)C(=O)N[C@H](C(N)=O)[C@@H](C)O[C@@H]1O[C@H](CO)[C@@H](O)[C@H](O)[C@H]1O) [Peptide 11003]” as the molecule, how does the “rank order of affinity for the delta receptor” value [1] read?
Answer: The value was “[11001≈111003≈11008≈DPDDE]>[11005≈11006≈11007]>[11002≈11004]>Lsz27”.
